Patent US8679836B2, “Methods of monitoring angiogenesis and metastasis in three dimensional co-cultures” (The United States of America, as represented by the …, priority 2007, dated 2014)
Where two headings read alike, the source gives them in different places.

Legend:
PAE-GFP cells = test: Tubule formation assay on gelled BME, quantified with AngioApplication; format: cell-based, porcine; conditions: for EC50: Sus scrofa
Protocol: This example describes exemplary procedures for measuring the ability of the cell lines disclosed herein for tubule formation potential. 50 μl of low growth factor BME (Basement Membrane Extract, Trevigen, Inc. Gaithersburg, Md.) were laid down in each well and the plate was incubated for 1 hour at 37° C. The extract gels at 37° C. to form a reconstituted basement membrane and stimulates tubule formation by endothelial cells. The major components of the Basement Membrane Extract (BME) include laminin I, collagen IV, entactin, and heparin sulfate proteoglycan. 15,000 PAE-GFP cells were then added on top of the gelled BME and images were acquired with a fluorescent microscope after 3.5-24 hours. Cells were imaged on the BD Pathway™ Bioimager. […] Tubule formation assays were quantified using the Java based software AngioApplication™. AngioApplication™ has been specifically designed for the quantification of tubule formation assays. Several morphological parameters were assessed in images including the total area of the tubules, the total number of tubules, number of nodes, number of branch points, the number of tubes per node, or node.
As shown in FIG. 7A increasing concentrations of suramin causes disruption of tubule formation. AngioApplication™ was used to automatically assess tube length at several concentrations of suramin. Traditionally quantification of tube formation was based in the measurement of complete (long) tubes in the image. AngioApplication™ determined that as the concentration of suramin was increased the number of long tubules was diminished. […] In addition, because AngioApplication™ calculates the length for all tubes in the image (including incomplete tubes) a more refined analysis was performed using the measurement of short (or incomplete) tubules. […] This is in agreement with the fact that Suramin interferes with the mechanism of tube formation.

HMEC-1 = test: 3D co-culture of HMEC-1 with leiomyosarcoma HTB-88 core biopsy xenograft, panel of angiogenesis inhibitors; format: cell-based, human; conditions: 100 μg/ml, five-day incubation, versus Thalidomide, Sunitinib, Fumagillin
Protocol: Peripheral ringlet xenograft tissue/HMEC-1 co-cultures were incubated with Avastin®, Thalidomide, Sunitinib or Fumagilin.
3D co-cultures were prepared as follows: 50 μl 1% SEAKEM™ LE agarose were added to individual wells of a 96-well plate and allowed to solidify at room temperature for 20 minutes. 30 μl GELTREX® gel matrix (Invitrogen) were combined with PAE, LEC or HMEC-1 cells at a cell density of 560,000 cells/ml and added to each well of the plate (atop the solidified agarose). Plates were maintained on wet ice (4° C.) to prevent solidification of the gel matrix/cell mixture (the second layer). A single tumor cell spheroid colony or single ringlet of xenograft core biopsy was added to the center of the well and the matrix gel was solidified at 37° C. On top of the tumor/endothelial cell gel layer, 80 μl EBM-2+1% FBS were added to a final concentration of EMB-2+0.5% FBS in relation to the total volume of the culture. Cultures were incubated at 37° C. for 5-20 days and endothelial vessel network formation was observed by confocal laser scanning fluorescence microscopy. […]
Identifying the most efficacious therapy for a particular patient is a crucial goal for successful cancer treatment. […] Several FDA approved anti-angiogenic compounds were assessed in this capacity, including Avastin®, Thalidomide, and Sunitinib as well as the non-FDA approved drug Fumagillin.

PAE cells = test: 3D co-culture of fluorescent PAE cells with leiomyosarcoma HTB-88 xenograft biopsy tissue; format: cell-based, porcine; conditions: 100 μg/ml, six days, FIG. 30
Protocol: Xenografts were prepared as in Example 7. Tumor xenografts were dissected when they reached about 1 cm in diameter and put into the sterile 15 ml or 50 ml tubes (Corning) with RPMI1640 medium supplemented with 10% FBS, 1% Glucose (Sigma), and 4× Antibiotic-Antimycotic (Invitrogen). The tumor xenografts were placed on wet ice and shipped to the lab within 2-3 hours. The Xenografts were rinsed 3 times in 70% ethanol and then 3 times in PBS. In the hood, the core biopsy was performed by biopsy punch (Miltex, Inc.) and was washed out into a 100 cm cell culture dish (Corning) by using a pipette to blow the top opening of the biopsy applicator. Using a disposable scalpel (Feather Safety Razor, Co. Japan), the core biopsy was dissected in three stages. 1 mm of both ends of the core biopsy was carefully cut off; they were transferred into a new 100 cm cell culture dish labeled P (peripheral section). Next, 1 mm of both ends of the remaining core biopsy were removed and discarded. […]
3D co-cultures were prepared as follows: 50 μl 1% SEAKEM™ LE agarose were added to individual wells of a 96-well plate and allowed to solidify at room temperature for 20 minutes. […] Cultures were incubated at 37° C. for 5-20 days and endothelial vessel network formation was observed by confocal laser scanning fluorescence microscopy. […]

Compound	effect on tubule formation (PAE-GFP cells; PAE green cells, 0 to 26 μM)	EC50 (PAE-GFP cells; read-out: EC50, number of long tubules)	EC50 (PAE-GFP cells; read-out: EC50, number of short (incomplete) tubules)	EC50 (PAE-GFP cells; read-out: EC50 calculated, tubule formation)	inhibition of proliferation, compared with the other inhibitors (HMEC-1)	inhibition of tubule formation, compared with the other inhibitors (HMEC-1)	effect on PAE proliferation (PAE cells)	effect on tubule formation (PAE cells)
Cc1ccc(C(=O)Nc2ccc(S(=O)(=O)O)c3cc(S(=O)(=O)O)cc(S(=O)(=O)O)c23)cc1NC(=O)c1cccc(NC(=O)Nc2cccc(C(=O)Nc3cc(C(=O)Nc4ccc(S(=O)(=O)O)c5cc(S(=O)(=O)O)cc(S(=O)(=O)O)c45)ccc3C)c2)c1 [suramin]	inhibited tubule formation	~26 µM	~26 µM	~26 µM	–	–	–	–
Avastin®: monoclonal antibody directed against an isoform of VEGF, FDA-approved angiogenesis inhibitor	–	–	–	–	greatest inhibition	greatest inhibition	inhibited	inhibited
